pIC50: −log10 of the molar value.
What was measured:
[1] = biological target: EGFR (ErbB1) T790M L858R (Homo sapiens (Human), UniProt P00533, L858R/T790M); assay: Z'-LYTE kinase inhibition assay, EGFR L858R/T790M; format: biochemical; settings: for inhibition at 1 µM: read-out: % inhibition against EGFR L858R/T790M (Compound at 1 μM); for pIC50: read-out: IC50 against EGFR L858R/T790M; for inhibition at 0.0137 µM: read-out: % inhibition against EGFR L858R/T790M (Compound at 0.0137 μM)
How it was run: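 Z'-LYTE FRET peptide assay at 1% DMSO, 10-point 3-fold titrations; kinase/peptide mix in 50 mM HEPES pH 6.5, 0.01% BRIJ-35, 10 mM MgCl2, 1 mM EGTA, 0.02% NaN3. Kinase reaction ran 60 min at room temperature, followed by 60 min development and a fluorescence read. IC50 derived from the concentration series.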

[2] = biological target: BTK (Homo sapiens (Human), UniProt Q06187); assay: Z'-LYTE kinase inhibition assay, BTK; format: biochemical; settings: for inhibition at 0.041 µM: compound at 0.041 μM, read-out: % inhibition against BTK; for pIC50: read-out: IC50 against BTK
Chain of BTK (Q06187 whole entry): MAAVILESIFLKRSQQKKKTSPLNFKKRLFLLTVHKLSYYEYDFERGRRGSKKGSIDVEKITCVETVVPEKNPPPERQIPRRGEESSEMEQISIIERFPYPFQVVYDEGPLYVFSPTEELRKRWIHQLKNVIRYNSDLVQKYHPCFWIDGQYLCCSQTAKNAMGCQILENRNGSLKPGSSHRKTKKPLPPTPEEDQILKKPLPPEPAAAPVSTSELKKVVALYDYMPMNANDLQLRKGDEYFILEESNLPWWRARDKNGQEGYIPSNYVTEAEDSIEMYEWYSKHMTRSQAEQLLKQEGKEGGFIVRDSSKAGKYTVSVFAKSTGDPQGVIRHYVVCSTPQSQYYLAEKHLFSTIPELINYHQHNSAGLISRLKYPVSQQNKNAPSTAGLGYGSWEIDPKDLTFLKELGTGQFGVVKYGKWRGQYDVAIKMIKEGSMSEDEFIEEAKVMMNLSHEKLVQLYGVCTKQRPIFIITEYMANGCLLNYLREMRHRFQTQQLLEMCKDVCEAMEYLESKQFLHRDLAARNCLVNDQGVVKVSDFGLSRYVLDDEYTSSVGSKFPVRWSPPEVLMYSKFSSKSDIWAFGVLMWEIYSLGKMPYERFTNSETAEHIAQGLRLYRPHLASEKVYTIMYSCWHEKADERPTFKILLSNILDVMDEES
How it was run: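 Z'-LYTE FRET assay with Tyr 01 peptide in 50 mM HEPES pH 7.5, 10 mM MgCl2, 1 mM EGTA, 0.01% BRIJ-35. Compounds in 1% DMSO were tested as 10-point, 3-fold titrations.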

[3] = biological target: JAK2 (Homo sapiens (Human), UniProt O60674); assay: Z'-LYTE kinase inhibition assay, JAK2; format: biochemical; settings: compound at 0.041 μM; read-out: % inhibition against JAK2
Chain of JAK2 (O60674 whole entry): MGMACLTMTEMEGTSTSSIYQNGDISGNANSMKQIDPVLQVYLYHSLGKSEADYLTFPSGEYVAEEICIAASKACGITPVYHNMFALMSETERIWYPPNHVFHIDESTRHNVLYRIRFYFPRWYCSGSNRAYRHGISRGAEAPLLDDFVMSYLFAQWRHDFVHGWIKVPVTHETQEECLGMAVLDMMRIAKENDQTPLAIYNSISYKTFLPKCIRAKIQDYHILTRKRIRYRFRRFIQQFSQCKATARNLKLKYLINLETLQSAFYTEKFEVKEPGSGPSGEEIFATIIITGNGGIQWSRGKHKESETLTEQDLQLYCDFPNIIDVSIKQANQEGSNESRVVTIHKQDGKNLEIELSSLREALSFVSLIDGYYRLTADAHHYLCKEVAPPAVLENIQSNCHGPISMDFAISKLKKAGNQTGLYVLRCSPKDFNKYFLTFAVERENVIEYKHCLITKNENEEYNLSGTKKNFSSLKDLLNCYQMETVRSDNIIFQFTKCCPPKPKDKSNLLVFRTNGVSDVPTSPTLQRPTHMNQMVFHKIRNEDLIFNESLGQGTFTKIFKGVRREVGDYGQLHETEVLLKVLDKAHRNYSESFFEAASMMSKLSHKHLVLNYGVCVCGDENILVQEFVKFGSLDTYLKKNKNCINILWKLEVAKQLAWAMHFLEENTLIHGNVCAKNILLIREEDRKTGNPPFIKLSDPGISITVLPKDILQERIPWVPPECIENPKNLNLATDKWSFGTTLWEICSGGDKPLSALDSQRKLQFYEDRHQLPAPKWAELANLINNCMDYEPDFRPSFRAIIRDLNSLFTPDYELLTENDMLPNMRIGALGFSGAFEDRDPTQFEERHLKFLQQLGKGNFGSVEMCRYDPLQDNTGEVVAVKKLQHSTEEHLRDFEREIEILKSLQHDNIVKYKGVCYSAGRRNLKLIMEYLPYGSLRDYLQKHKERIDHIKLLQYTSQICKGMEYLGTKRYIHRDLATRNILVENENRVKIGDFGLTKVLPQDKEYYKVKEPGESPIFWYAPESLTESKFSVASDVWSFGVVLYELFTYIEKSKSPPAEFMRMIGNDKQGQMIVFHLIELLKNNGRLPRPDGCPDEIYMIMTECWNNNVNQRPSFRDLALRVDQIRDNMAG
Method: (§1) Inhibitory activities of compounds against BTK, EGFR and EGFR mutants (EGFR L858R, EGFR T790M, EGFR L858R/T790M), FGFR1, FGFR2, JAK2, JAK3 and KDR were measured by Invitrogen using Z'-LYTE® Method as briefly described in the following.
(§2) Test Compounds are screened in 1% DMSO (final) in the well. For 10 point titrations, 3-fold serial dilutions are conducted from the starting concentration. All ATP Solutions are diluted to a 4× working concentration in Kinase Buffer (50 mM HEPES pH 7.5, 0.01% BRIJ-35, 10 mM MgCl2, 1 mM EGTA). Peptide/Kinase Mixtures are diluted to a 2× working concentration in the appropriate Kinase Buffers as described below.
(v) Peptide/Kinase Mixtures for Measurement of JAK2:
The 2×JAK2/Tyr 06 mixture is prepared in 50 mM HEPES pH 7.5, 0.01% BRIJ-35, 10 mM MgCl2, 1 mM EGTA. The final 10 μL Kinase Reaction consists of 0.06-0.81 ng JAK2 and 2 μM Tyr 06 in 50 mM HEPES pH 7.5, 0.01% BRIJ-35, 10 mM MgCl2, 1 mM EGTA. After the 1 hour Kinase Reaction incubation, 5 μL of a 1:64 dilution of Development Reagent A is added.
(§3) Reaction starts by 30-second shaking of mixture consisting of 2.5 μL 4× test compound, […] 2× kinase reaction mixture and 2.5 μL 4×ATP Solution on Bar-coded Corning, low volume NBS, black 384-well plate (Corning Cat. #3676). Then the mixture is incubated for 60-minute at room temperature for the kinase reaction, followed by addition of 5 μL of a 1:1024 dilution of development reagent A and 30-second plate shake. The mixture is then incubated for another 60-minute at room temperature for development reaction. Finally fluorescence is read by plate reader.

[4] = biological target: FGFR1 (Homo sapiens (Human), UniProt P11362); assay: Z'-LYTE kinase inhibition assay, FGFR1; format: biochemical; settings: compound at 0.041 μM; read-out: % inhibition against FGFR1
Chain of FGFR1 (P11362 22-822): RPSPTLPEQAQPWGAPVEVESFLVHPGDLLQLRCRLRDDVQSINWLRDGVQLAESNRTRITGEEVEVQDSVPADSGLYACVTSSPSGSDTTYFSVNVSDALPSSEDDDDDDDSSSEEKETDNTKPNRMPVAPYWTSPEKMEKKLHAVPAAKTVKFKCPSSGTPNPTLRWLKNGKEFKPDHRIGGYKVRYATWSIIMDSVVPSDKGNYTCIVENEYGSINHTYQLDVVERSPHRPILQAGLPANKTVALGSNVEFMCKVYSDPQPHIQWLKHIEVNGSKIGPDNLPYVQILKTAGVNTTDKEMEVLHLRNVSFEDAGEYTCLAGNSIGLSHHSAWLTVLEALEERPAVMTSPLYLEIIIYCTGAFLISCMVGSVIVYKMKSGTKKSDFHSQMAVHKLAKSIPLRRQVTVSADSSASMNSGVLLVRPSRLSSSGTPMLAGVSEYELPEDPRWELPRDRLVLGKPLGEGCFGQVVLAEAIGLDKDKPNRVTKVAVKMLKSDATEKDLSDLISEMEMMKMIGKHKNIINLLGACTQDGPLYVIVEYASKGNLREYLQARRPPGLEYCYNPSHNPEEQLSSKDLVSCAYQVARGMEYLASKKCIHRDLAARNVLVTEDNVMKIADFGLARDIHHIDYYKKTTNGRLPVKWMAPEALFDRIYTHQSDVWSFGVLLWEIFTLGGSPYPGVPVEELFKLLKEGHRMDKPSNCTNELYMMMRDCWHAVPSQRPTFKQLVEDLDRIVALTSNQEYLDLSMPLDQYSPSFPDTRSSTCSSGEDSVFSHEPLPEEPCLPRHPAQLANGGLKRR
Method: as §1, §2
(v) Peptide/Kinase Mixtures for Measurement of FGFR1:
The 2×FGFR1/Tyr 04 mixture is prepared in 50 mM HEPES pH 7.5, 0.01% BRIJ-35, 10 mM MgCl2, 4 mM MnCl2, 1 mM EGTA, 2 mM DTT. The final 10 μL Kinase Reaction consists of 0.41-3.5 ng FGFR1 and 2 μM Tyr 04 in 50 mM HEPES pH 7.5, 0.01% BRIJ-35, 10 mM MgCl2, 2 mM MnCl2, 1 mM EGTA, 1 mM DTT. After the 1 hour Kinase Reaction incubation, 5 μL of a 1:64 dilution of Development Reagent B is added.
as §3
To determine IC50 of a compound against EGFR, EGFR mutant and other kinases, a series of concentrations of the compound were tested for the inhibition. […] The scale utilized in Table 4 is as follows: +++ less than 100 nM, ++ 100-500 nM and + greater than 500 nM.

[5] = tested on: H1975 cells; assay: Inhibition of cancer cell growth, MTT assay, H1975; settings: Homo sapiens, NCI-H1975, 72 h, read-out: IC50 in H1975 cells
[6] = tested on: HCC827 cells; assay: cells; settings: Homo sapiens, HCC827, 72 h, read-out: IC50 in HCC827 cells
Method: (§4) Taxol (as a positive control. Sigma) and compounds were dissolved in DMSO (Sigma), and the final concentration of DMSO in the medium was 1%. Tumor cells were plated in 96-well plates at densities of about 4000 cells/well of a 96-well plate and allowed to adhere/grow for 24 h. They were then treated with various concentrations of drug for 72 h, 3-(4,5-Dimethylthiazol-2-yl)-2,5-diphenyltetrazolium bromide (MTT, Sigma) was used to determine the number of viable cells at the time of compound addition and the number of cells remaining after 72 h compound exposure. The number of cells remaining after 72 h was compared to the number of viable cells at the time of compound addition by measuring the absorbance at 570 nm, allowing for the calculation of growth inhibition.
(§5) All concentrations of compounds were tested in triplicate and controls were averaged over 4 wells. IC50 was calculated by plotting the concentration of compound vs the percentage of inhibition in treated wells using GraphPad Prism 5.
(§6) The scale utilized in Tables 5 is as follows: +++ less than 100 nM; ++ between 100 nM and 500 nM; and + greater than 500 nM.

[7] = biological target: EGFR (ErbB1) (Homo sapiens (Human), UniProt P00533); assay: Z'-LYTE kinase inhibition assay, EGFR; format: biochemical; settings: for inhibition at 1 µM: read-out: % inhibition against EGFR (Compound at 1 μM); for inhibition at 0.041 µM: read-out: % inhibition against EGFR (Compound at 0.041 μM); for pIC50: read-out: IC50 against EGFR
Chain of EGFR (ErbB1) (P00533 25-1210): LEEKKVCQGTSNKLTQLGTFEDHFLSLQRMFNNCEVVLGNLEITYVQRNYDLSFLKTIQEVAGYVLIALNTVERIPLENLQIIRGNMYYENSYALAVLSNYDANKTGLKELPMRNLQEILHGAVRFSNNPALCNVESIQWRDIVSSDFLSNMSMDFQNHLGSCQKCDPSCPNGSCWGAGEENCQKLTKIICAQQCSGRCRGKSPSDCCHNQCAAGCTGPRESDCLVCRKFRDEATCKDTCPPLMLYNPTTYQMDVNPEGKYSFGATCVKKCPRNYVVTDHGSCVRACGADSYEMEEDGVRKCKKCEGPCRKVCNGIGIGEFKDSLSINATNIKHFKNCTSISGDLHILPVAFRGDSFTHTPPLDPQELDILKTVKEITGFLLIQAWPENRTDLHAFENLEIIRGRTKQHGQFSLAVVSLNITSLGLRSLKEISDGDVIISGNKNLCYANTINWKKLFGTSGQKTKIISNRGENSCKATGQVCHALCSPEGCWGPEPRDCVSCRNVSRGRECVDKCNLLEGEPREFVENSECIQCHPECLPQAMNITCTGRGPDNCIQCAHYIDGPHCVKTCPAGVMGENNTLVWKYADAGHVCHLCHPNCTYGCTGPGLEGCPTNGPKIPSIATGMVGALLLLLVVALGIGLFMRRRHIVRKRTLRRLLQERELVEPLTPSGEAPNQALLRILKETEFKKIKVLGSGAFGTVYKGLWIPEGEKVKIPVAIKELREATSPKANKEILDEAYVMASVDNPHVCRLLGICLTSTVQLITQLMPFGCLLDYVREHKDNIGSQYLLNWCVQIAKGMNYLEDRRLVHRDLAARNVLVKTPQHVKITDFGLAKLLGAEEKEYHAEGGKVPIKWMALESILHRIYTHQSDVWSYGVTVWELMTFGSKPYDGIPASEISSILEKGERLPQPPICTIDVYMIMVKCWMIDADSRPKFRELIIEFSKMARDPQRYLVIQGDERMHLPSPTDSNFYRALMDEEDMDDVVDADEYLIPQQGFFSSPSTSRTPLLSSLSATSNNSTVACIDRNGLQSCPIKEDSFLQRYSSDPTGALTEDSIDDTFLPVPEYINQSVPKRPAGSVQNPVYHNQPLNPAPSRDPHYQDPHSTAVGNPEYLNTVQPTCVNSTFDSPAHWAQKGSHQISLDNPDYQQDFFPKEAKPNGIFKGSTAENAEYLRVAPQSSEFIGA
How it was run: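 Z'-LYTE FRET assay run with 1.1-5.25 ng EGFR and 2 μM peptide substrate in 50 mM HEPES pH 7.5, 10 mM MgCl2, 2 mM MnCl2, 1 mM EGTA, 1 mM DTT, 0.01% BRIJ-35, 1% DMSO. Kinase reaction 60 min at room temperature, then 60 min development; IC50 from 10-point 3-fold titrations.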

[8] = tested on: A431 cells; assay: cells; settings: Homo sapiens, A-431, 72 h, read-out: IC50 in A431 cells
Method: as §4, §5, §6

[9] = tested on: H1299 cells; assay: Inhibition of cancer cell growth, MTT assay, H1299; settings: Homo sapiens, NCI-H1299, 72 h, read-out: IC50 in H1299 cells
Method: (§7) Inhibition of cell growth by compounds was measured using MTT assay (Mosmann, T., Journal of Immunological Methods, 1983, 65, 55-63). Tumor cell lines were purchased from ATCC (American Type Culture Collection, Manassas, Va.). All cell lines were maintained in RPMI 1640 (Hyclone) supplemented with 10% fetal bovine serum (FBS, Hyclone), glutamine (2 mM, Hyclone), and antibiotics (penicillin 100 U/mL and streptomycin 50 μg/mL) at 37° C. in a humidified atmosphere of 5% CO2 in air. Taxol (as a positive control. Sigma) and compounds were dissolved in DMSO (Sigma), and the final concentration of DMSO in the medium was 1%. Tumor cells were plated in 96-well plates at densities of about 4000 cells/well of a 96-well plate and allowed to adhere/grow for 24 h. They were then treated with various concentrations of drug for 72 h, 3-(4,5-Dimethylthiazol-2-yl)-2,5-diphenyltetrazolium bromide (MTT, Sigma) was used to determine the number of viable cells at the time of compound addition and the number of cells remaining after 72 h compound exposure. The number of cells remaining after 72 h was compared to the number of viable cells at the time of compound addition by measuring the absorbance at 570 nm, allowing for the calculation of growth inhibition.
as §5

[10] = tested on: H3255 cells; assay: Inhibition of cancer cell growth, MTT assay, H3255; settings: Homo sapiens, NCI-H3255, 72 h, read-out: IC50 in H3255 cells
Method: as §7, §5

Chain of EGFR (ErbB1) T790M L858R (P00533 25-1210 T790M/L858R): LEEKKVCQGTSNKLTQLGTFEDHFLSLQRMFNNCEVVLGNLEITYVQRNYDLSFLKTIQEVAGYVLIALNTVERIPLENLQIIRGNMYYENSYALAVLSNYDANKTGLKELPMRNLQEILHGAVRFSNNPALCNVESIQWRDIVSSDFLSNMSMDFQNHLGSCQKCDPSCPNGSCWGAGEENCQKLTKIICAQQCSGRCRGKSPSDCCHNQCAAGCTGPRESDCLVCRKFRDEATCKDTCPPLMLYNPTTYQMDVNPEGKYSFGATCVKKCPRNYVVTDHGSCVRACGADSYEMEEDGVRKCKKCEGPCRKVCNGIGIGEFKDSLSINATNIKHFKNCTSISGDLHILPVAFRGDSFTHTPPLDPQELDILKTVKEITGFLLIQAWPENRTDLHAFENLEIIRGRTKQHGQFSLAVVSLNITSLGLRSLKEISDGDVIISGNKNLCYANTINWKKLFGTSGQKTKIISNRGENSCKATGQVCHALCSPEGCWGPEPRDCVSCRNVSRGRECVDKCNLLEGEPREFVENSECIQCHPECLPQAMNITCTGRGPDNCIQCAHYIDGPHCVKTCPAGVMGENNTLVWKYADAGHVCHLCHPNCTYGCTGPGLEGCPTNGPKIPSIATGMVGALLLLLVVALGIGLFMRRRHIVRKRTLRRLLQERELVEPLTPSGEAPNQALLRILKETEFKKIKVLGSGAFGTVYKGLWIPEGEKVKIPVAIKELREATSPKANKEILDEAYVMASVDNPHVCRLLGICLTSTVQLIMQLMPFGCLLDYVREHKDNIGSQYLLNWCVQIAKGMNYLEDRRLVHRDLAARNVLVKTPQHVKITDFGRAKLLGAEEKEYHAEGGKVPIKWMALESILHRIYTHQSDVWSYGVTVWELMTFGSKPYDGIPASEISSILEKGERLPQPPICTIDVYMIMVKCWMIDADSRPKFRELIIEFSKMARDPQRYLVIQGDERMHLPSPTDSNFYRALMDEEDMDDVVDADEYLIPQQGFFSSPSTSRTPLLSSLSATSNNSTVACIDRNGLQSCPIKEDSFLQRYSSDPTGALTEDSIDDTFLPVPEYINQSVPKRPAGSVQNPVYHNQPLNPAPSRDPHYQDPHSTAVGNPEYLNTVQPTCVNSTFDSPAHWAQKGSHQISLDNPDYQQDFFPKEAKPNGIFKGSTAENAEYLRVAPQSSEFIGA

With `CC(=O)Nc1cccc(-c2cccc3cnc(Nc4ccc(N5CCN(C)CC5)cc4)nc23)c1` [Example C022, N-(3-(2-((4-(4-methylpiperazin-1-yl)phenyl)amino)quinazolin-8-yl)phenyl)acetamide] the inhibition at 1 µM [1] was > 50%, the inhibition at 0.041 µM [2] was > 50% and the inhibition at 0.041 µM [3] was > 50%. For the same compound, the inhibition at 0.041 µM [4] was > 50%, the pIC50 [5] was < 6.30 and the pIC50 [6] was > 7.00.
With `Fc1ccc(OCCN2CCOCC2)cc1-c1cccc2cnc(Nc3ccc(N4CCOCC4)cc3)nc12` [Example C023, 8-(2-fluoro-5-(2-morpholinoethoxy)phenyl)-N-(4-morpholinophenyl)quinazolin-2-amine] the inhibition at 1 µM [1] was < 50%, the inhibition at 1 µM [7] was < 50% and the inhibition at 0.041 µM [2] was < 50%. For the same compound, the inhibition at 0.041 µM [3] was < 50%, the inhibition at 0.041 µM [4] was < 50% and the pIC50 [5] was < 6.30. The pIC50 [6] was < 6.30.
For `Clc1ccccc1-c1cccc2cnc(Nc3ccc(N4CCNCC4)cc3)nc12` [Example C026, 8-(2-chlorophenyl)-N-(4-(piperazin-1-yl)phenyl)quinazolin-2-amine], the inhibition at 1 µM [1] was > 50%, the inhibition at 0.041 µM [2] was < 50% and the inhibition at 0.041 µM [3] was > 50%. For the same compound, the inhibition at 0.041 µM [4] was > 50%, the pIC50 [5] was < 6.30 and the pIC50 [6] was < 6.30.
For `C=CC(=O)Nc1cccc(-c2cccc3cnc(Nc4ccc(N5CCN(C(C)=O)CC5)cc4)nc23)c1` [Example C032, N-(3-(2-((4-(4-acetylpiperazin-1-yl)phenyl)amino)quinazolin-8-yl)phenyl)acrylamide], the pIC50 [1] was > 7.00, the pIC50 [8] was 6.30 to 7.00 and the inhibition at 1 µM [7] was > 50%. For the same compound, the inhibition at 0.041 µM [2] was > 50%, the inhibition at 0.041 µM [3] was > 50% and the pIC50 [5] was 6.30 to 7.00. The pIC50 [6] was > 7.00 and the pIC50 [9] was < 6.30.
For `C=CC(=O)Nc1cccc(-c2c(C)ccc3cnc(Nc4ccc(N5CCOCC5)cc4)nc23)c1` [Example C033, N-(3-(7-methyl-2-((4-morpholinophenyl)amino)quinazolin-8-yl)phenyl)acrylamide], the inhibition at 1 µM [1] was > 50%, the inhibition at 1 µM [7] was > 50% and the inhibition at 0.041 µM [2] was > 50%. For the same compound, the inhibition at 0.041 µM [3] was < 50%, the pIC50 [5] was 6.30 to 7.00 and the pIC50 [6] was > 7.00. The pIC50 [9] was < 6.30.
For `C=CC(=O)Nc1cccc(-c2cccc3cnc(Nc4ccc(N5CCN(C(C)=O)CC5)nc4)nc23)c1` [Example C036, N-(3-(2-((6-(4-acetylpiperazin-1-yl)pyridin-3-yl)amino)quinazolin-8-yl)phenyl)acrylamide], the inhibition at 0.041 µM [4] was < 50%, the pIC50 [5] was < 6.30 and the pIC50 [6] was > 7.00. The pIC50 [9] was < 6.30.
`C=CC(=O)Nc1cncc(-c2cccc3cnc(Nc4ccc(N5CCN(C)CC5)cc4)nc23)c1` [Example C040, N-(5-(2-((4-(4-methylpiperazin-1-yl)phenyl)amino)quinazolin-8-yl)pyridin-3-yl)acrylamide] was tested, and the pIC50 [1] was > 7.00, the pIC50 [8] was 6.30 to 7.00 and the inhibition at 0.041 µM [7] was > 50%. For the same compound, the pIC50 [7] was > 7.00, the inhibition at 0.041 µM [2] was > 50% and the inhibition at 0.041 µM [3] was < 50%. For the same compound, the pIC50 [5] was > 7.00, the pIC50 [6] was > 7.00 and the pIC50 [9] was 6.30 to 7.00.
`C=CC(=O)Nc1cccc(-c2cccc3cnc(Nc4ccc(N5CCN(C)CC5)cc4)nc23)c1Cl` [Example C054, N-(2-chloro-3-(2-((4-(4-methylpiperazin-1-yl)phenyl)amino)quinazolin-8-yl)phenyl)acrylamide] was tested, and the inhibition at 0.0137 µM [1] was > 50%, the pIC50 [1] was > 7.00 and the pIC50 [8] was < 6.30. The inhibition at 0.041 µM [7] was > 50%, the inhibition at 0.041 µM [2] was > 50% and the inhibition at 0.041 µM [3] was > 50%. The pIC50 [5] was 6.30 to 7.00.
`C=CC(=O)Nc1cccc(-c2cccc3cnc(Nc4ccc(N5CCN(C)CC5)nc4OC)nc23)c1` [Example C055, N-(3-(2-((2-methoxy-6-(4-methylpiperazin-1-yl)pyridin-3-yl)amino)quinazolin-8-yl)phenyl)acrylamide] was tested, and the inhibition at 0.0137 µM [1] was > 50%, the pIC50 [8] was 6.30 to 7.00 and the inhibition at 0.041 µM [7] was < 50%. The inhibition at 0.041 µM [2] was < 50%, the inhibition at 0.041 µM [3] was < 50% and the pIC50 [5] was 6.30 to 7.00.
For `C=CC(=O)Nc1cccc(-c2cccc3cnc(Nc4ccc(N5CCN(C)CC5)c(C(N)=O)c4)nc23)c1` [Example C085, 5-((8-(3-acrylamidophenyl)quinazolin-2-yl)amino)-2-(4-methylpiperazin-1-yl)benzamide], the pIC50 [1] was > 7.00, the pIC50 [8] was 6.30 to 7.00 and the inhibition at 0.041 µM [7] was < 50%. For the same compound, the pIC50 [2] was > 7.00, the pIC50 [10] was < 6.30 and the pIC50 [5] was > 7.00. The pIC50 [9] was < 6.30.
For `C=CC(=O)Nc1cccc(-c2cccc3cnc(Nc4ccc(NC5CN(CCO)C5)cc4)nc23)c1` [Example C099, N-(3-(2-((4-((1-(2-hydroxyethyl)azetidin-3-yl)amino)phenyl)amino)quinazolin-8-yl)phenyl)acrylamide], the inhibition at 0.0137 µM [1] was > 50%, the pIC50 [1] was > 7.00 and the pIC50 [8] was 6.30 to 7.00. For the same compound, the inhibition at 0.041 µM [7] was > 50%, the pIC50 [7] was > 7.00 and the pIC50 [2] was > 7.00. For the same compound, the pIC50 [10] was < 6.30, the pIC50 [5] was > 7.00 and the pIC50 [9] was < 6.30.

Source: US10172868B2, “Substituted quinazolines for inhibiting kinase activity” (NeuPharma, Inc., priority 2013, dated 2019)
